US20100317831A1, “PROBE COMPOUNDS FOR PROTEIN TYROSINE PHOSPHATASE (PTP) AND PRECURSORS THEREOF” (NATIONAL TAIWAN UNIVERSITY, priority 2009, published 2010)

Molecular target: T1, PTP1B (Homo sapiens, UniProt P18031)
T1 sequence (P18031 1-435): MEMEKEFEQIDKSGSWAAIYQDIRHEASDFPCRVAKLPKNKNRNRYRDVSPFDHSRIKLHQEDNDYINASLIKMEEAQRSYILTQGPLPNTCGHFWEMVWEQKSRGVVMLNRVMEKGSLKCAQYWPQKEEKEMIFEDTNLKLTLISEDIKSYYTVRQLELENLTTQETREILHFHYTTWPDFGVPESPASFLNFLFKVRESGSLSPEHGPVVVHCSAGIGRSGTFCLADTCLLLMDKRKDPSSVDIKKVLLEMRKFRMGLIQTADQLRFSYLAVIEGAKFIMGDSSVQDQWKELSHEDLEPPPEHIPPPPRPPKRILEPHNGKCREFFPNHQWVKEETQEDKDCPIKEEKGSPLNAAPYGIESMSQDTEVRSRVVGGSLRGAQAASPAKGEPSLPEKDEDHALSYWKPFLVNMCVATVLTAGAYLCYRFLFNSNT
Assay: PTP1B labeling by probe compound (streptavidin immunoblot)
Type: biochemical
Description: FIG. 1b was visualized by immunoblotting analysis (streptavidin) after transferring the reaction products onto a nitrocellulose membrane. […] Since the probe compounds themselves are also the substrates of the corresponding PTPs, the results clearly indicate that the newly developed latent trapping unit well mimics the phosphorotyrosine residue of the natural substrate. […] In the absence of PTPs, they underwent hydrolysis slowly and the purity remained greater than 90% even after 1 hr (as determined by HPLC).
To test if probe compounds 30a-c could differentiate PTPs from other phosphatases, we conducted labeling experiments on nine phosphatases, including five PTPs, alkaline phosphatase (ALP), PTEN (dephosphorylating the phosphatidylinositol 3,4,5-trisphosphate), and two serine/threonine phosphatases (PPP1CA and PPM1A).
In order to further study how well probe compounds 30a-c could differentiate between the various PTPs, we compared the labeling intensities on five PTPs (PTP1B, SHP2, TCPTP, VHR, and PTPPEST) with those obtained from probe 1 (LCL2). When the intensities of the probe compounds 30a-c-labeled bands in each set of experiments were normalized relative to that of a probe 1-labeled band, we were able to establish a quantitative comparison of their labeling preference (as shown in FIGS. 4a to 4e). […] Of the five PTPs tested, the substrate specificities of PTP1B, TCPTP, and SHP2 were better studied than those of VHR and PTP-PEST. […] The trend of substrate preference obtained from this study was similar to those determined by other methods. We have also compared the labeling intensity data for the other two PTPs, VHR (a dual-specificity phosphatase) and PTP-PEST (a classical PTP). […] This provides evidence to support the concept that probe compounds with added amino acid residues flanking the latent trapping device were able to influence their target specificities.

For `CC(C)CC(NC(=O)C(Cc1ccc(OP(=O)(O)O)c(CF)c1)NC(=O)C(CCC(=O)O)NC(=O)CCC(=O)NCCOCCOCCNC(=O)CCCCC1SC[C@H]2NC(=O)N[C@@H]12)C(N)=O` (stereo partly drawn) [compound 30b], the “biotinylated adduct (labeling of PTP1B) with phosphatase inhibitor present” value (Na3VO4 present in the incubation mixture) was “no biotinylated adduct was observed”, the “activity dependence of labeling of PTPs” value (PTP1B and TCPTP, conclusion from Na3VO4 control) was “activity dependent” and the “biotinylated protein bands (labeling of PTP1B)” value (immunoblotting analysis (streptavidin), FIG. 1b) was “Intense biotinylated protein bands were observed”.
